Experimental data published in ChEMBL document CHEMBL1201862, “PubChem BioAssay data set” (2004).
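Test compounds were applied to cells in 96-well plates for 48 hours at 5 doses. Abbreviation: GI50, concentration required for 50% inhibition of growth.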 Calls of active or inactive are those of the source. No stated cut-off is given here; in the data, active = GI50 up to about 1.1 µM and inactive = higher.

Key:
Assay in all cases: NCI tumour cell line growth inhibition, 48 h
[1] = tested on: SW-620
[2] = tested on: KM12
[3] = tested on: Malme-3M
[4] = tested on: K562
[5] = tested on: SN12C
[6] = tested on: SK-MEL-28
[7] = tested on: SK-OV-3
[8] = tested on: NCI-H460
[9] = tested on: SF-539
[10] = tested on: ACHN
[11] = tested on: OVCAR-8
[12] = tested on: HT-29
[13] = tested on: COLO 205
[14] = tested on: SK-MEL-5
[15] = tested on: LOX IMVI
[16] = tested on: NCI-H226
[17] = tested on: SK-MEL-2
[18] = tested on: EKVX

Measured: GI50

COc1ccc2c(c1)NC1(O)c3ccccc3C(=O)C21O (configuration not stated)
inactive: [1] > 100 µM | [2] > 100 µM | [3] > 100 µM | [4] > 100 µM | [5] > 100 µM | [6] > 100 µM | [7] > 100 µM | [8] > 100 µM | [9] > 100 µM | [10] > 100 µM | [11] > 100 µM | [12] > 100 µM | [13] > 100 µM | [14] > 100 µM | [15] > 100 µM | [16] > 100 µM

O=C1c2ccccc2C(Br)(Br)c2ccccc21
inactive: [1] > 31.6 µM | [2] > 100 µM | [3] > 31.6 µM | [4] > 31.6 µM | [5] > 31.6 µM | [6] > 31.6 µM | [7] > 31.6 µM | [8] > 31.6 µM | [9] 57.8 µM | [10] > 31.6 µM | [17] > 31.6 µM | [11] > 100 µM | [12] > 100 µM | [13] > 31.6 µM | [14] > 31.6 µM | [18] > 100 µM | [15] > 31.6 µM | [16] > 31.6 µM

Cc1ccccc1/N=C/c1ccc(N(CCC#N)S(=O)(=O)c2ccccc2)cc1
inactive: [1] > 100 µM | [2] > 100 µM | [3] > 100 µM | [4] > 100 µM | [5] > 100 µM | [6] > 100 µM | [7] > 100 µM | [8] > 100 µM | [9] > 100 µM | [10] > 100 µM | [17] > 100 µM | [11] > 100 µM | [12] > 100 µM | [13] > 100 µM | [14] > 100 µM | [18] > 100 µM | [15] > 100 µM | [16] > 100 µM

CC(=O)OCC(=O)[C@@]1(O)CC[C@H]2[C@@H]3CCC4=CC(=O)[C@H](C)C[C@]4(C)[C@H]3[C@@H](O)C[C@@]21C
inactive: [1] > 100 µM | [2] > 100 µM | [3] > 100 µM | [4] > 100 µM | [5] > 100 µM | [6] > 100 µM | [7] > 100 µM | [8] > 100 µM | [9] > 100 µM | [10] > 100 µM | [17] > 100 µM | [11] > 100 µM | [12] > 100 µM | [13] > 100 µM | [14] > 100 µM | [18] > 100 µM | [15] > 100 µM | [16] > 100 µM

COC(=O)CCC(NC(=S)N/N=C/c1ccco1)C(=O)OC (configuration not stated)
inactive: [1] > 100 µM | [2] > 100 µM | [3] > 100 µM | [4] > 100 µM | [5] > 100 µM | [6] > 100 µM | [7] > 100 µM | [8] > 100 µM | [9] > 100 µM | [10] > 100 µM | [17] > 100 µM | [11] > 100 µM | [12] > 100 µM | [13] > 100 µM | [14] > 100 µM | [18] > 100 µM | [15] > 100 µM | [16] > 100 µM

NC(=S)/N=C(/c1nc2ccc(Cl)cc2nc1O)C(O)c1ccccc1Cl (configuration not stated)
inactive: [1] > 100 µM | [2] > 100 µM | [3] > 100 µM | [4] > 100 µM | [6] > 100 µM | [7] > 100 µM | [8] > 100 µM | [9] > 100 µM | [10] > 100 µM | [17] > 100 µM | [11] > 100 µM | [12] > 100 µM | [13] > 100 µM | [18] > 100 µM | [15] > 100 µM | [16] > 100 µM

CN(C)CC1CCC(=C2CCCC2)C1=O (configuration not stated)
inactive: [2] 10.9 µM | [3] 5.62 µM | [4] 2.86 µM | [5] 10.7 µM | [6] 14.4 µM | [7] > 100 µM | [8] 21.7 µM | [9] 20 µM | [10] 8.18 µM | [17] 18.4 µM | [11] 20 µM | [12] 12.5 µM | [13] 14.9 µM | [14] 17.9 µM | [18] 18.6 µM | [15] 16.6 µM | [16] 17.9 µM

O=c1c2ccc(Br)cc2nc(-c2ccccc2)n1NC1OC(CO)C(O)C(O)C1O (configuration not stated)
inactive: [1] > 100 µM | [2] > 100 µM | [3] > 100 µM | [4] > 100 µM | [5] > 100 µM | [6] > 100 µM | [7] > 100 µM | [8] > 100 µM | [9] > 100 µM | [10] > 100 µM | [17] > 100 µM | [11] > 100 µM | [12] > 100 µM | [13] > 100 µM | [14] > 100 µM | [18] > 100 µM | [16] > 100 µM

COC1=CC2(C=CC1=O)c1cc(OC)c(OC)cc1CCN2C(=O)c1ccccc1 (configuration not stated)
inactive: [1] > 100 µM | [2] > 100 µM | [3] > 100 µM | [4] > 100 µM | [5] > 100 µM | [6] > 100 µM | [7] > 100 µM | [9] > 100 µM | [10] > 100 µM | [11] > 100 µM | [12] > 100 µM | [13] > 100 µM | [14] > 100 µM | [18] > 100 µM | [15] > 100 µM | [16] > 100 µM

Cc1ccc2c(c1)C(c1cccc3ccccc13)OC2=O (configuration not stated)
inactive: [1] > 100 µM | [2] 99.1 µM | [3] 51.6 µM | [4] > 100 µM | [5] > 100 µM | [6] > 100 µM | [7] 86.3 µM | [8] > 100 µM | [10] 92.9 µM | [17] > 100 µM | [11] 84.5 µM | [12] > 100 µM | [13] > 100 µM | [14] 31.4 µM | [18] 69.8 µM | [15] > 100 µM | [16] 42.9 µM

CCCCCC1C2C(=O)NC(=O)C1C(=O)NC2=O (configuration not stated)
inactive: [1] > 100 µM | [2] > 100 µM | [3] > 100 µM | [4] > 100 µM | [5] > 100 µM | [6] > 100 µM | [7] > 100 µM | [8] > 100 µM | [9] > 100 µM | [10] > 100 µM | [17] > 100 µM | [11] > 100 µM | [12] > 100 µM | [13] > 100 µM | [14] > 100 µM | [18] > 100 µM | [15] > 100 µM | [16] > 100 µM

CS(=O)(=O)NNS(=O)(=O)c1ccc(Cl)cc1
inactive: [1] > 100 µM | [2] > 100 µM | [3] > 100 µM | [4] > 100 µM | [5] > 100 µM | [8] > 100 µM | [9] > 100 µM | [10] > 100 µM | [17] > 100 µM | [11] > 100 µM | [12] > 100 µM | [13] > 100 µM | [14] > 100 µM | [18] 76.4 µM | [15] > 100 µM | [16] 11 µM

CCOC(=O)c1c(-c2ccccc2)oc(-c2ccccc2)c1C(=O)OCC
inactive: [1] > 100 µM | [2] > 100 µM | [3] > 100 µM | [4] 67.3 µM | [5] > 100 µM | [6] > 100 µM | [7] > 100 µM | [9] > 100 µM | [10] > 100 µM | [17] 94.2 µM | [11] > 100 µM | [12] 22.6 µM | [13] 99.1 µM | [14] 56.5 µM | [18] > 100 µM | [15] > 100 µM | [16] > 100 µM

COC(=O)c1c(C(=O)OC)c2ccccn2c1-c1cc(OC)c(Br)c(=O)o1
inactive: [1] > 100 µM | [2] > 100 µM | [3] > 100 µM | [4] > 100 µM | [5] > 100 µM | [6] > 100 µM | [7] > 100 µM | [8] > 100 µM | [9] 56.8 µM | [10] > 100 µM | [17] > 100 µM | [11] > 100 µM | [12] > 100 µM | [13] > 100 µM | [14] > 100 µM | [18] > 100 µM | [15] > 100 µM | [16] > 100 µM

CCCCCCCC1(c2ccc(N)cc2)CCC(=O)NC1=O (configuration not stated)
inactive: [1] 58.2 µM | [2] 48.4 µM | [3] 28.1 µM | [4] 28.4 µM | [5] 30 µM | [6] 28.7 µM | [7] 33 µM | [8] 26.7 µM | [10] 18.7 µM | [17] 35.8 µM | [11] 35.8 µM | [13] 21.9 µM | [14] 20.7 µM | [18] 23.5 µM | [15] 33 µM

COC(=N)c1csc(C2OC(CO)C(O)C2O)n1 (configuration not stated)
inactive: [1] > 100 µM | [2] > 100 µM | [3] > 100 µM | [4] > 100 µM | [5] > 100 µM | [6] > 100 µM | [7] > 100 µM | [8] > 100 µM | [9] > 100 µM | [10] > 100 µM | [17] > 100 µM | [11] > 100 µM | [12] > 100 µM | [13] > 100 µM | [18] > 100 µM | [15] > 100 µM | [16] > 100 µM
